Values quoted from earlier work, collected in publication PMC5501742 (Cancer discovery, 2017).

Details: cited from earlier work

Nc1cc(C(F)(F)F)c(-c2cc(N3CCOCC3)nc(N3CCOCC3)n2)cn1 [Buparlisib]
frequent treatment-related AEs: rash, hyperglycemia, diarrhea, and mucositis
